Here are results for 5 compounds from patent US7160881B2, “Crystalline modifications of 2-(3,5-bis-trifluoromethyl-phenyl)-N-[6-(1,1-dioxo-1 λ6-thiomorpholin-4-yl)-4-(4-fluoro-2-methyl-phenyl)-pyridin-3-yl]-N-methyl-isobutyramide” (Hoffmann-La Roche Inc., priority 2003, dated 2007).

Series [1] in a line: Dynamic Vapor Sorption (DVS). It is filed as physicochemical. The note with it: from 0 to 90% RH. The source says:
Dynamic Vapor Sorption (DVS)

The nature of series [2]: Pharmacokinetics after single oral administration to fed male beagle dogs (plasma concentrations by LC-MS, non-compartmental analysis). Format: in vivo. The settings on record: for bioavailability (general statement of the description): A: formulations compared with those of B or C modification, amorphous: in microsuspension form; for concentration at 24 h: read-out: C(24 h); for AUC(0-t): read-out: AUC(0–24 h). How it is done: Four male beagle dogs (age 5 to 6 years, body weight 11 to 14 kg) received single oral doses of 2 mg/kg of 2-(3,5-bis-trifluoromethyl-phenyl)-N-[6-(1,1-dioxo-1λ^6-thiomorpholin-4-yl)-4-(4-fluoro-2-methyl-phenyl)-pyridin-3-yl]-N-methyl-isobutyramide form A and form B (cross-over study design). The formulation was a granulate of the finely milled compound with 20% sodium dodecyl sulfate (SDS) in gelatine capsules.
In addition, four male beagle dogs (age 4 to 7 years, body weight 11 to 14 kg) received a single oral dose of 2 mg/kg of 2-(3,5-bis-trifluoromethyl-phenyl)-N-[6-(1,1-dioxo-1λ^6-thiomorpholin-4-yl)-4-(4-fluoro-2-methyl-phenyl)-pyridin-3-yl]-N-methyl-isobutyramide form C as finely milled compound with 10% SDS in gelatine capsules. The dogs received 200 g commercial dog chow (Pal®, approx. 7% fat content) about 30 minutes before administration of the compound.
Two dogs (age 8 years, body weight 12 to 14 kg) received 5 mg/kg of 2-(3,5-bis-trifluoromethyl-phenyl)-N-[6-(1,1-dioxo-1λ^6-thiomorpholin-4-yl)-4-(4-fluoro-2-methyl-phenyl)-pyridin-3-yl]-N-methyl-isobutyramide as amorphous material orally by gavage as microsuspension. The dogs were fed before and during the experiment.
Plasma samples were drawn at several time points. 2-(3,5-bis-Trifluoromethyl-phenyl)-N-[6-(1,1-dioxo-1λ^6-thiomorpholin-4-yl)-4-(4-fluoro-2-methyl-phenyl)-pyridin-3-yl]-N-methyl-isobutyramide plasma concentrations were determined using a selective LC-MS method with a quantification limit of 10 ng/mL. Pharmacokinetic parameters (e.g. AUC, Cmax) were estimated by non-compartmental analysis using WinNonlin 3.1®.

[3] abbreviates: beagle, dog, plasma, po, 5 mg/kg, mean, n=2, single oral 5 mg/kg by gavage as microsuspension, fed dogs.
Where [4] appears, read: dog Charly, single oral 2 mg/kg, fed male beagle dog, cross-over, granulate with 20% SDS in gelatine capsules, 2 mg/kg.
Setting [5] is: dog Lars, single oral 2 mg/kg, fed male beagle dog, cross-over, granulate with 20% SDS in gelatine capsules, 2 mg/kg.
The mark [6] stands for this setting: dog Lupo, single oral 2 mg/kg, fed male beagle dog, cross-over, granulate with 20% SDS in gelatine capsules, 2 mg/kg.
The mark [7] stands for this setting: dog Mickey, single oral 2 mg/kg, fed male beagle dog, cross-over, granulate with 20% SDS in gelatine capsules, 2 mg/kg.
Where [8] appears, read: male, beagle, dog, plasma, po, 2 mg/kg, dog Lars, single oral 2 mg/kg, fed male beagle dog, cross-over, granulate with 20% SDS in gelatine capsules.
Where [9] appears, read: male, beagle, dog, plasma, po, 2 mg/kg, mean, n=4, single oral 2 mg/kg, fed male beagle dogs, cross-over, granulate with 20% SDS in gelatine capsules.
Where [10] appears, read: mean, n=4, single oral 2 mg/kg, fed male beagle dogs, cross-over, granulate with 20% SDS in gelatine capsules, 2 mg/kg.
Where [11] appears, read: single oral 2 mg/kg, fed male beagle dogs, cross-over.
[12] abbreviates: male, beagle, dog, plasma, po, 2 mg/kg, mean, n=4, single oral 2 mg/kg, fed male beagle dogs, finely milled compound with 10% SDS in gelatine capsules.
Where [13] appears, read: single oral 2 mg/kg, fed male beagle dogs.

Read-outs that look alike come from different tables or passages of the source.

On to `Cc1cc(F)ccc1-c1cc(N2CCS(=O)(=O)CC2)ncc1N(C)C(=O)C(C)(C)c1cc(C(F)(F)F)cc(C(F)(F)F)c1` [amorphous material, 2-(3,5-bis-trifluoromethyl-phenyl)-N-[6-(1,1-dioxo-1λ^6-thiomorpholin-4-yl)-4-(4-fluoro-2-methyl-phenyl)-pyridin-3-yl]-N-methyl-isobutyramide], for which the “reversible uptake of water (DVS)” value in series [1] came to 0.8 %-w/w. In addition, the “bioavailability (general statement of the description)” value in series [2] is given as “improved bioavailability”. Further, the “exposure after oral administration (ranking of forms)” value in series [2] (beagle dogs, amorphous as microsuspension) is recorded as “highest”. In addition, the concentration at 24 h was 49.2 ng/mL in series [2] (beagle, dog, plasma, oral, 5 mg/kg, mean, n=2, 5 mg/kg oral microsuspension, values normalized to 2 mg/kg) and 123 ng/mL in series [2] (setting [3]). Moreover, the AUC(0-t) in series [2] (beagle, dog, plasma, po, 5 mg/kg, mean, n=2, 5 mg/kg oral microsuspension, values normalized to 2 mg/kg) was 4160 ng·h/mL; in series [2] (setting [3]), 10400 ng·h/mL. For the same compound, the maximum concentration (Cmax) in series [2] (beagle, dog, plasma, po, 5 mg/kg, mean, n=2, 5 mg/kg oral microsuspension, values normalized to 2 mg/kg, read-out: Cmax) was found to be 1220 ng/mL; in series [2] (beagle, dog, plasma, po, 5 mg/kg, mean, n=2, single oral 5 mg/kg by gavage as microsuspension, fed dogs, read-out: Cmax) it was 3050 ng/mL. In addition, in series [2] (mean, n=2, 5 mg/kg oral microsuspension, values normalized to 2 mg/kg), the F is recorded as 24.5%.
Take `Cc1cc(F)ccc1-c1cc(N2CCS(=O)(=O)CC2)ncc1N(C)C(=O)C(C)(C)c1cc(C(F)(F)F)cc(C(F)(F)F)c1` [Example 7, 2-(3,5-Bis-trifluoromethyl-phenyl)-N-[6-(1,1-dioxo-1λ^6-thiomorpholin-4-yl)-4-(4-fluoro-2-methyl-phenyl)-pyridin-3-yl]-N-methyl-isobutyramide]: the melting point was 135 to 138 °C.
`Cc1cc(F)ccc1-c1cc(N2CCS(=O)(=O)CC2)ncc1N(C)C(=O)C(C)(C)c1cc(C(F)(F)F)cc(C(F)(F)F)c1` [Form A, 2-(3,5-bis-trifluoromethyl-phenyl)-N-[6-(1,1-dioxo-1λ^6-thiomorpholin-4-yl)-4-(4-fluoro-2-methyl-phenyl)-pyridin-3-yl]-N-methyl-isobutyramide]: the “reversible uptake of water (DVS)” value in series [1] (listed as modification A) was 3.1 %-w/w. Also, in series [2], the “bioavailability (general statement of the description)” value is listed as “improved bioavailability”. Besides, the “bioavailability among the three crystalline polymorphs A, B, and C” value in series [2] (beagle dogs, powder in gelatine capsules containing sodium dodecyl sulfate) was “highest bioavailability”. The results for the “AUC(0–24 h)” value in series [2] (setting [4]), in series [2] (setting [6]) and in series [2] (setting [7]) were 3720 ng·h/mL, 2490 ng·h/mL and 2900 ng·h/mL, respectively. Further, the “C(24 h)” value in series [2] (setting [4]) turned out to be 47.6 ng/mL. Besides, the Cmax in series [2] (setting [4]) was 391 ng/mL; in series [2] (male, beagle, dog, plasma, po, 2 mg/kg, dog Lars, single oral 2 mg/kg, fed male beagle dog, cross-over, granulate with 20% SDS in gelatine capsules, read-out: Cmax) it was 744 ng/mL; in series [2] (male, beagle, dog, plasma, po, 2 mg/kg, dog Lupo, single oral 2 mg/kg, fed male beagle dog, cross-over, granulate with 20% SDS in gelatine capsules, read-out: Cmax), 424 ng/mL; in series [2] (male, beagle, dog, plasma, po, 2 mg/kg, dog Mickey, single oral 2 mg/kg, fed male beagle dog, cross-over, granulate with 20% SDS in gelatine capsules, read-out: Cmax), 496 ng/mL; in series [2] (male, beagle, dog, plasma, po, 2 mg/kg, mean, n=4, single oral 2 mg/kg, fed male beagle dogs, cross-over, granulate with 20% SDS in gelatine capsules, read-out: Cmax) it was 514 ng/mL. For the same compound, the F in series [2] (setting [4]) turned out to be 24.5%; in series [2] (setting [5]), 18.2%; in series [2] (setting [6]), 16.2%; in series [2] (setting [7]) it was 17.4%; in series [2] (setting [10]), 19.1%. The AUC(0-t) in series [2] (setting [8]) came out at 2520 ng·h/mL; in series [2] (setting [9]), 2910 ng·h/mL. Moreover, the concentration at 24 h is 28.2 ng/mL in series [2] (setting [8]); 40.3 ng/mL in series [2] (male, beagle, dog, plasma, po, 2 mg/kg, dog Lupo, single oral 2 mg/kg, fed male beagle dog, cross-over, granulate with 20% SDS in gelatine capsules); 29.8 ng/mL in series [2] (male, beagle, dog, plasma, po, 2 mg/kg, dog Mickey, single oral 2 mg/kg, fed male beagle dog, cross-over, granulate with 20% SDS in gelatine capsules); 36.5 ng/mL in series [2] (setting [9]). The “Mean Cmax, higher after form A as compared to form B” value in series [2] (setting [11]) worked out at 1.7 fold. The “Mean oral bioavailability, higher after form A as compared to form B” value in series [2] (setting [11]) worked out at 1.9 fold.
On to `Cc1cc(F)ccc1-c1cc(N2CCS(=O)(=O)CC2)ncc1N(C)C(=O)C(C)(C)c1cc(C(F)(F)F)cc(C(F)(F)F)c1` [Form C, 2-(3,5-bis-trifluoromethyl-phenyl)-N-[6-(1,1-dioxo-1λ^6-thiomorpholin-4-yl)-4-(4-fluoro-2-methyl-phenyl)-pyridin-3-yl]-N-methyl-isobutyramide], for which, in series [2] (setting [12]), the AUC(0-t) was 2660 ng·h/mL and the concentration at 24 h turned out to be 29.2 ng/mL. In addition, the Cmax in series [2] (male, beagle, dog, plasma, po, 2 mg/kg, mean, n=4, single oral 2 mg/kg, fed male beagle dogs, finely milled compound with 10% SDS in gelatine capsules, read-out: Cmax) was found to be 510 ng/mL. The compound also yielded a F in series [2] (mean, n=4, single oral 2 mg/kg, fed male beagle dogs, finely milled compound with 10% SDS in gelatine capsules) of 13.3%. In series [2] (setting [13]), the “mean AUC(0–24 h) compared with form A” value was “approximately the same” and the “mean Cmax compared with form A” value was “approximately the same”.
On to `Cc1cc(F)ccc1-c1cc(N2CCS(=O)(=O)CC2)ncc1N(C)C(=O)C(C)(C)c1cc(C(F)(F)F)cc(C(F)(F)F)c1` [Form B, 2-(3,5-bis-trifluoromethyl-phenyl)-N-[6-(1,1-dioxo-1λ^6-thiomorpholin-4-yl)-4-(4-fluoro-2-methyl-phenyl)-pyridin-3-yl]-N-methyl-isobutyramide], for which the “AUC(0–24 h)” value in series [2] (setting [4]) was 949 ng·h/mL; in series [2] (setting [5]) it was 3880 ng·h/mL; in series [2] (setting [6]) it was 1130 ng·h/mL; in series [2] (setting [7]), 1330 ng·h/mL; in series [2] (setting [10]), 1822 ng·h/mL. Besides, the “C(24 h)” value in series [2] (setting [4]) is given as 17.7 ng/mL; in series [2] (setting [5]) it was 51.7 ng/mL; in series [2] (setting [6]) it was 23.2 ng/mL; in series [2] (setting [7]), 21.4 ng/mL; in series [2] (setting [10]), 28.5 ng/mL. Moreover, the peak concentration (Cmax) in series [2] (setting [4]) is 122 ng/mL; in series [2] (setting [5]) it was 631 ng/mL; in series [2] (setting [6]), 216 ng/mL; in series [2] (setting [7]), 251 ng/mL; in series [2] (setting [10]) it was 305 ng/mL. In addition, the F in series [2] (setting [4]) was determined as 6.3%; in series [2] (setting [5]), 21%; in series [2] (setting [6]), 6.8%; in series [2] (setting [7]) it was 8.2%; in series [2] (setting [10]), 11.0%.
